≈ marks a conversion by molar mass, not a printed value.
How the values were obtained:
[1] = system: Mycoplasmoides gallisepticum; assay: Antimycoplasmal activity against Mycoplasma gallisepticum K514 with the extra addition of copper (40 uM); type: functional
[2] = system: Mycoplasmoides gallisepticum; assay: Antimycoplasmal activity against Mycoplasma gallisepticum K514 without the extra addition of copper; type: functional

MIC [1] [µM]	MIC [2] [µM]	Molecule
0.45 (≈ 0.0996 µg/mL)	452 (≈ 100 µg/mL)	Nc1nc(-c2ccccn2)cc2ccccc12
0.34 (≈ 0.128 µg/mL)	> 170	CCCCCCCCCC(=O)Nc1nc(-c2ccccn2)cc2ccccc12
0.09 (≈ 0.0305 µg/mL)	> 23	Cc1cccc(C(=O)Nc2nc(-c3ccccn3)cc3ccccc23)c1
0.1 (≈ 0.0325 µg/mL)	12.3 (≈ 4.01 µg/mL)	O=C(Nc1nc(-c2ccccn2)cc2ccccc12)c1ccccc1
0.35 (≈ 0.126 µg/mL)	> 23	O=C(Nc1nc(-c2ccccn2)cc2ccccc12)c1cccc(Cl)c1
0.45 (≈ 0.125 µg/mL)	> 25	CCC(=O)Nc1nc(-c2ccccn2)cc2ccccc12
0.39 (≈ 0.138 µg/mL)	> 100	Cc1cc(C)cc(C(=O)Nc2nc(-c3ccccn3)cc3ccccc23)c1
0.39 (≈ 0.138 µg/mL)	> 100	Cc1ccc(C)c(C(=O)Nc2nc(-c3ccccn3)cc3ccccc23)c1
0.21 (≈ 0.0641 µg/mL)	> 25	CC(C)(C)C(=O)Nc1nc(-c2ccccn2)cc2ccccc12
–	400	CUPRIC SULFATE
1.9 (≈ 0.5 µg/mL)	> 25	CC(=O)Nc1nc(-c2ccccn2)cc2ccccc12
0.19 (≈ 0.0645 µg/mL)	> 160	Cc1ccc(C(=O)Nc2nc(-c3ccccn3)cc3ccccc23)cc1
0.39 (≈ 0.138 µg/mL)	> 100	Cc1ccc(C(=O)Nc2nc(-c3ccccn3)cc3ccccc23)cc1C
0.39 (≈ 0.138 µg/mL)	> 100	Cc1ccc(C(=O)Nc2nc(-c3ccccn3)cc3ccccc23)c(C)c1
0.18 (≈ 0.064 µg/mL)	> 160	COc1ccc(C(=O)Nc2nc(-c3ccccn3)cc3ccccc23)cc1
0.35 (≈ 0.126 µg/mL)	> 160	O=C(Nc1nc(-c2ccccn2)cc2ccccc12)c1ccc(Cl)cc1
0.1 (≈ 0.0916 µg/mL)	0.1 (≈ 0.0916 µg/mL)	CC[C@H]1OC(=O)C[C@@H](O)[C@H](C)[C@@H](O[C@@H]2O[C@H](C)[C@@H](O[C@H]3C[C@@](C)(O)[C@@H](O)[C@H](C)O3)[C@H](N(C)C)[C@H]2O)[C@@H](CC=O)C[C@@H](C)C(=O)/C=C/C(C)=C/[C@@H]1CO[C@@H]1O[C@H](C)[C@@H](O)[C@@H](OC)[C@H]1OC [TYLOSIN]
0.18 (≈ 0.064 µg/mL)	> 23	COc1cccc(C(=O)Nc2nc(-c3ccccn3)cc3ccccc23)c1
0.36 (≈ 0.125 µg/mL)	> 170	CCCCC(CC)C(=O)Nc1nc(-c2ccccn2)cc2ccccc12 (stereo not drawn)
0.78 (≈ 0.276 µg/mL)	> 25	Cc1cccc(C)c1C(=O)Nc1nc(-c2ccccn2)cc2ccccc12
0.64 (≈ 0.252 µg/mL)	> 160	O=C(Nc1nc(-c2ccccn2)cc2ccccc12)c1ccc(Cl)c(Cl)c1
0.22 (≈ 0.0641 µg/mL)	> 25	CC(C)C(=O)Nc1nc(-c2ccccn2)cc2ccccc12

From ChEMBL document CHEMBL1124073, “Synthesis and copper-dependent antimycoplasmal activity of 1-amino-3-(2-pyridyl)isoquinoline derivatives. 1. Amides” (1988)
